Measured values taken from patent US9938274B1, “Naphthyridine compounds, medical combinations and use thereof” (Nanjing Natinefy Pharmatech Co., Ltd., priority 2016, dated 2018).

Tests used:
U87MG tumor = assay: Tumor xenograft model, U87MG, tumor growth inhibition; type: in vivo, nude mice (BALB/cA nu/nu); conditions: for Tumor growth inhibition rate, % TGI: day 22
RET = RET (Homo sapiens (Human), UniProt P07949); assay: HTRF KinEASE TK kinase inhibition assay, RET; type: biochemical
Protocol: A study on inhibition of protein kinases activity at in vitro biochemical level
Material and method: kinases such as c-Met, VEGFR-2, Axl and RET, obtained from Invitrogen; HTRF KinEASE; TK kit (Cisbio Company); 384-well plate (Greiner Company); ATP (Sigma Company), MgCl2 (Sigma Company); PHERAstar FS multifunctional plate reader (BMG Company); conventional centrifuge (StaiteXiangyi Company); incubator (Binder Company).
Preparation of working solution of the compounds: Before test, aliquots of the compounds are removed from the refrigerator, and diluted with pure DMSO to 50× of the level needed; and then the compounds are diluted with deionized water to 4× of the level needed;
Preparation of 1.33× enzymatic buffer: 5× enzymatic buffer (from HTRF kit) is diluted to 1.33× with deionized water, and appropriate components of the final level 1.33× are added: 1.33 mmol/L dithiothreitol (DTT) and 1.33 mmol/L MgCl2;
Preparation of kinase working solution: Met is diluted to 2× final level required, 0.2 ng/μL, with 1.33× enzymatic buffer; […]
Reading HTRF signal: PHERAstar FS is used to read the testing signal, and its setting is as following:
For the original data read from each well, ratio=665 nm/620 nm; […]

Axl kinase = Axl kinase (Homo sapiens (Human), UniProt P30530); assay: HTRF KinEASE TK kinase inhibition assay, Axl; type: biochemical
[1] = In vivo pharmacokinetic study in rats
Protocol: An In Vivo Pharmacokinetic Study in Rats
For intravenous injection, rats are given a dose of 1 mg/kg. For oral administration, rats are given a dose of 5 mg/kg. […] The whole blood is centrifuged at 8000 rpm for 5 min to collect plasma, which is then transferred to 96-well pallet, and stored at −20° C. till LC-MS/MS testing.
Pharmacokinetic parameters among rats after medication are estimated using the non-compartment model of software WinNonlin.
The peak concentration, Cmax: the actual measurements are used;

c-Met (h) = c-Met (h) (Homo sapiens (Human), UniProt P08581); assay: HTRF KinEASE TK kinase inhibition assay, c-Met; type: biochemical
c-Met (h), sequence (P08581 25-1390): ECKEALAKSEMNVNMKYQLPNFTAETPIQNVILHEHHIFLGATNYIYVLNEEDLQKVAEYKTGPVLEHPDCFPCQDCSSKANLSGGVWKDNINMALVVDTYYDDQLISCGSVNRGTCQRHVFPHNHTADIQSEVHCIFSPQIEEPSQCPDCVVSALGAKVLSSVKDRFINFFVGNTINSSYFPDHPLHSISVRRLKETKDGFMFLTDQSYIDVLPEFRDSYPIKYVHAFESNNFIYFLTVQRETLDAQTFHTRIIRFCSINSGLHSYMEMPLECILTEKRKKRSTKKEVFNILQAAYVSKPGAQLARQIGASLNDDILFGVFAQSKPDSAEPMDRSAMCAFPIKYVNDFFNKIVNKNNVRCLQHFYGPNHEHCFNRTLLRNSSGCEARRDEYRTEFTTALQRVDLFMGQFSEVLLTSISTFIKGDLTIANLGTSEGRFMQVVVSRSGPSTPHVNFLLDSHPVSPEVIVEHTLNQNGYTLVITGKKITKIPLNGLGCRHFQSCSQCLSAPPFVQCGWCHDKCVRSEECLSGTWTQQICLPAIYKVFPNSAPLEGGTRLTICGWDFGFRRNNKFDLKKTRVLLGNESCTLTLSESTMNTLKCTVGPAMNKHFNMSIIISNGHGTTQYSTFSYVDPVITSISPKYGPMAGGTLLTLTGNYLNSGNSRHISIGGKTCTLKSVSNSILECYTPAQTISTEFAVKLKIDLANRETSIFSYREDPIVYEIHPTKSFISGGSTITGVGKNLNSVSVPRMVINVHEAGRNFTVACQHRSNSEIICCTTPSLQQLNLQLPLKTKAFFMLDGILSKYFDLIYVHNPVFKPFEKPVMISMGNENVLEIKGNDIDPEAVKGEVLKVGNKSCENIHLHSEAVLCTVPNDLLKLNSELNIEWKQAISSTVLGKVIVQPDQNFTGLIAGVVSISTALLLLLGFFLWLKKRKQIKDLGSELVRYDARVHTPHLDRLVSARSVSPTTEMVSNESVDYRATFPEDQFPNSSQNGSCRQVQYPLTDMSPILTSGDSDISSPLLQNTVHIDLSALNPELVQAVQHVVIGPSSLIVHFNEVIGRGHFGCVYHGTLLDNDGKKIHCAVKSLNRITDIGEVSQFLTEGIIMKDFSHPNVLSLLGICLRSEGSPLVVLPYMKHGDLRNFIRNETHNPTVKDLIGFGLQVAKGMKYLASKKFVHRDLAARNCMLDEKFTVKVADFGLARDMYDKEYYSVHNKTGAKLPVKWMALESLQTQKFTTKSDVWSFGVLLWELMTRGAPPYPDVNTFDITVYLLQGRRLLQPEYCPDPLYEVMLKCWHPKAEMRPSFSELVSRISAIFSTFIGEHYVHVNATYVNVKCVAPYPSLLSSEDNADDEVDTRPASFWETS

RET, sequence (P07949 29-1114): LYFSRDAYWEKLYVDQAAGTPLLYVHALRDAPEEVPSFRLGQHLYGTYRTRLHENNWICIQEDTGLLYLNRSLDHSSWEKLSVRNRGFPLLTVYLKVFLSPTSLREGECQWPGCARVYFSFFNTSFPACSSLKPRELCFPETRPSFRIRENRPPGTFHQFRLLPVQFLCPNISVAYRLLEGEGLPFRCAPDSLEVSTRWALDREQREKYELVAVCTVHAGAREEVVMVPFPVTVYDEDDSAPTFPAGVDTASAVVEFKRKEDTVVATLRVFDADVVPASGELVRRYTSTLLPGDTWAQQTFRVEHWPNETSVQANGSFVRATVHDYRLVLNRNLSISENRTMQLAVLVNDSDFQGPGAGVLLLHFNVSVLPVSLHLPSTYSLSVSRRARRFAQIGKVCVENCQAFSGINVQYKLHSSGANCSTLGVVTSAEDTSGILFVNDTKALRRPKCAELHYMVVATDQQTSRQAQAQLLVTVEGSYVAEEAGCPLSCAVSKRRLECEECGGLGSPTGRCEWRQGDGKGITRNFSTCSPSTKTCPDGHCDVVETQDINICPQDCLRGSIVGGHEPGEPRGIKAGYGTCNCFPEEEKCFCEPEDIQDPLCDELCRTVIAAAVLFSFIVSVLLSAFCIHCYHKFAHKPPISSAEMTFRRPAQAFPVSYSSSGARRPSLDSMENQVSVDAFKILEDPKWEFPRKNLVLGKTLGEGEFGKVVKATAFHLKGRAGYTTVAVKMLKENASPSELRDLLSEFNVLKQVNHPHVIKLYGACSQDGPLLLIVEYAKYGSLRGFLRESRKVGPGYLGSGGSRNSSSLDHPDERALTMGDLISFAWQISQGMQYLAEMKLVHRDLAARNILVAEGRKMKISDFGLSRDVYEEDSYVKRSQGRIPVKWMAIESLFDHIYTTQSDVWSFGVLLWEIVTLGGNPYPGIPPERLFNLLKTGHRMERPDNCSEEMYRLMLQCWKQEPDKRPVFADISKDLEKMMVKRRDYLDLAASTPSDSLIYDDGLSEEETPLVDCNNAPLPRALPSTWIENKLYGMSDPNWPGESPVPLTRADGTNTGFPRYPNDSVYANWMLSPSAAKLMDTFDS
Axl kinase, sequence (P30530 26-894): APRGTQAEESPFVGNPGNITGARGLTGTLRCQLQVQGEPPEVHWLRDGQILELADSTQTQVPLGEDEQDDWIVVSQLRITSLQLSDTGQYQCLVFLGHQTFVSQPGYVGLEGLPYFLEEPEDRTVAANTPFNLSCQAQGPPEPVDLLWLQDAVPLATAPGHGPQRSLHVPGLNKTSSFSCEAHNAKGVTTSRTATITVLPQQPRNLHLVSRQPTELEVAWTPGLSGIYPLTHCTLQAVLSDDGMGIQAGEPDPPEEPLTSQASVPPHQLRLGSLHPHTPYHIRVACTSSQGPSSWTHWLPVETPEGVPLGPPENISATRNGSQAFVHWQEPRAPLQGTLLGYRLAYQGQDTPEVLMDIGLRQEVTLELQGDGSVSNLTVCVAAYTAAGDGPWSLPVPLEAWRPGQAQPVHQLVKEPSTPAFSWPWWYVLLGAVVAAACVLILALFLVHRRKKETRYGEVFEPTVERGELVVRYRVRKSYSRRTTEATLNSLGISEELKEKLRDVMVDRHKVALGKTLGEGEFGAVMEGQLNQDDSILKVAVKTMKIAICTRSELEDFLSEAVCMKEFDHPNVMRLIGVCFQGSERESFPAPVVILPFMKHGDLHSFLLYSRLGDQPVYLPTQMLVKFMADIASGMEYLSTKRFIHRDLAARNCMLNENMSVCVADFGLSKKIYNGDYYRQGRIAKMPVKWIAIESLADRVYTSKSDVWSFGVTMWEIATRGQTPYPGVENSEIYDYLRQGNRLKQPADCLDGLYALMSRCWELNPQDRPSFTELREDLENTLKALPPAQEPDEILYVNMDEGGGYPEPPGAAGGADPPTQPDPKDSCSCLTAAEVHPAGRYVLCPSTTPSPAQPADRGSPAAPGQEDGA

| IC50 (c-Met (h)) [nM] | SMILES | Tumor growth inhibition rate, % TGI (U87MG tumor; 3 mg/kg p.o. QD) [%] | Tumor growth inhibition rate, % TGI (U87MG tumor; 10 mg/kg p.o. QD) [%] | Regression of tumor (tumor regression rate) (U87MG tumor; 6 animals per group) | IC50 (RET) [nM] | IC50 (Axl kinase) [nM] | CL ([1]; 5 mg/kg i.g.) [mL/min/kg] | Vz ([1]; 5 mg/kg i.g.) [L/kg] | AUC(0-t) ([1]; rat, plasma, iv, 1 mg/kg i.v.) [ng·h/mL] | Cmax ([1]; rat, plasma, iv, 1 mg/kg i.v.) [ng/mL] | clearance ([1]; rat, plasma, iv, 1 mg/kg i.v.) [mL/min/kg] | half-life ([1]; rat, plasma, iv, 1 mg/kg i.v.) [h] | Vd ([1]; rat, plasma, iv, 1 mg/kg i.v., read-out: Vz) [L/kg] | bioavailability ([1]; rat, plasma, oral, 5 mg/kg i.g. vs 1 mg/kg i.v., read-out: F (absolute bioavailability)) [%] | AUC(0-t) ([1]; rat, plasma, po, 5 mg/kg i.g.) [ng·h/mL] | Cmax ([1]; rat, plasma, po, 5 mg/kg i.g.) [ng/mL] | half-life ([1]; rat, plasma, po, 5 mg/kg i.g.) [h] |
| --- | --- | --- | --- | --- | --- | --- | --- | --- | --- | --- | --- | --- | --- | --- | --- | --- | --- |
|  | CC(C)(O)COc1ccc2c(Oc3ccc(Nc4nccc5[nH]cc(-c6ccc(F)cc6)c(=O)c45)cc3F)ccnc2c1 [Example 4, 5-((3-fluoro-4-((7-(2-hydroxy-2-methylpropoxy)quinolin-4-yl)oxy)phenyl)amino)-3-(4-fluorophenyl)-1,6-naphthyridin-4(1H)-one] | 87.0 | 105.9 | is 100% (6/6) | 62 | 15.7 | 2 | 1.46 | 11500 | 10800 | 0.5 | 9.97 | 0.47 | 71.8 | 41300 | 4310 | 8.37 |
| 7.4 | CC(C)(O)COc1ccc2c(Oc3ccc(Nc4nccc5[nH]cc(-c6ccccc6)c(=O)c45)cc3F)ccnc2c1 [Example 7, 5-((3-fluoro-4-((7-(2-hydroxy-2-methylpropoxy)quinolin-4-yl)oxy)phenyl)amino)-3-phenyl-1,6-naphthyridin-4(1H)-one] |  |  |  | 53 | 14.9 |  |  |  |  |  |  |  |  |  |  |  |
